Source: publication PMC12090182, “Repurposing of the RIPK1-Selective Benzo[1,4]oxazepin-4-one Scaffold for the Development of a Type III LIMK1/2 Inhibitor” (ACS Chemical Biology, 2025)
Like-named read-outs stand apart in the source and are kept apart here.

Tested on: HEK293T cells
Type: cell-based
Settings: HEK293T
In short: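 HEK293T and U2OS cells (DMEM) and MRC-9 fibroblasts (EMEM) exposed to compounds at 1 and 10 μM. Live-cell confocal imaging of cell shape and fluorescence before and at 12, 24 and 48 h. Normalized to 0.1% DMSO; biological duplicates with SEM.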

[1] = 1 µM, 0 h, biological replicate 1
[2] = 1 µM, 0 h, biological replicate 2
[3] = 1 µM, 12 h, biological replicate 1
[4] = 1 µM, 12 h, biological replicate 2
[5] = 1 µM, 24 h, biological replicate 1
[6] = 1 µM, 24 h, biological replicate 2
[7] = 1 µM, 48 h, biological replicate 1
[8] = 1 µM, 48 h, biological replicate 2
[9] = 10 µM, 0 h, biological replicate 1
[10] = 10 µM, 0 h, biological replicate 2
[11] = 10 µM, 12 h, biological replicate 1
[12] = 10 µM, 12 h, biological replicate 2
[13] = 10 µM, 24 h, biological replicate 1
[14] = 10 µM, 24 h, biological replicate 2
[15] = 10 µM, 48 h, biological replicate 1
[16] = 10 µM, 48 h, biological replicate 2

CC(C)C(=O)Nc1ncc(-c2cc(C(F)F)nn2-c2c(Cl)cccc2Cl)s1 [LIMKi3]
Cell count normalized to cells treated with DMSO control [1]: 1.015
Cell count per well [1]: 303
Population Fragmented Nuclei (%) [1]: 7.35%
Population Healthy Nuclei (%) [1]: 47.06%
Population Pyknosed Nuclei (%) [1]: 45.59%
Population apoptotic cell (%) [1]: 38.71%
Population cell that influence microtubule strucutre (%) [1]: 19.53%
Population with increased mitochondrial mass (%) [1]: 60.16%
Population with membrane disruption (%) [1]: 0.00%
Cell count normalized to cells treated with DMSO control [2]: 1.15
Cell count per well [2]: 263
Population Fragmented Nuclei (%) [2]: 1.64%
Population Healthy Nuclei (%) [2]: 65.98%
Population Pyknosed Nuclei (%) [2]: 32.38%
Population apoptotic cell (%) [2]: 63.29%
Population cell that influence microtubule strucutre (%) [2]: 26.71%
Population with increased mitochondrial mass (%) [2]: 85.09%
Population with membrane disruption (%) [2]: 0.00%
Cell count normalized to cells treated with DMSO control [3]: 0.9245
Cell count per well [3]: 421
Population Fragmented Nuclei (%) [3]: 4.05%
Population Healthy Nuclei (%) [3]: 82.03%
Population Pyknosed Nuclei (%) [3]: 13.92%
Population apoptotic cell (%) [3]: 40.00%
Population cell that influence microtubule strucutre (%) [3]: 44.44%
Population with increased mitochondrial mass (%) [3]: 48.77%
Population with membrane disruption (%) [3]: 0.62%
Cell count normalized to cells treated with DMSO control [4]: 1.019
Cell count per well [4]: 357
Population Fragmented Nuclei (%) [4]: 6.58%
Population Healthy Nuclei (%) [4]: 83.39%
Population Pyknosed Nuclei (%) [4]: 10.03%
Population apoptotic cell (%) [4]: 53.13%
Population cell that influence microtubule strucutre (%) [4]: 34.59%
Population with increased mitochondrial mass (%) [4]: 63.16%
Population with membrane disruption (%) [4]: 0.38%
Cell count normalized to cells treated with DMSO control [5]: 0.9573
Cell count per well [5]: 581
Population Fragmented Nuclei (%) [5]: 6.08%
Population Healthy Nuclei (%) [5]: 81.40%
Population Pyknosed Nuclei (%) [5]: 12.52%
Population apoptotic cell (%) [5]: 38.57%
Population cell that influence microtubule strucutre (%) [5]: 25.27%
Population with increased mitochondrial mass (%) [5]: 30.55%
Population with membrane disruption (%) [5]: 1.32%
Cell count normalized to cells treated with DMSO control [6]: 1.028
Cell count per well [6]: 464
Population Fragmented Nuclei (%) [6]: 11.83%
Population Healthy Nuclei (%) [6]: 78.42%
Population Pyknosed Nuclei (%) [6]: 9.74%
Population apoptotic cell (%) [6]: 30.95%
Population cell that influence microtubule strucutre (%) [6]: 20.41%
Population with increased mitochondrial mass (%) [6]: 38.46%
Population with membrane disruption (%) [6]: 0.30%
Cell count normalized to cells treated with DMSO control [7]: 0.8177
Cell count per well [7]: 827
Population Fragmented Nuclei (%) [7]: 14.02%
Population Healthy Nuclei (%) [7]: 79.47%
Population Pyknosed Nuclei (%) [7]: 6.51%
Population apoptotic cell (%) [7]: 28.85%
Population cell that influence microtubule strucutre (%) [7]: 17.17%
Population with increased mitochondrial mass (%) [7]: 22.36%
Population with membrane disruption (%) [7]: 1.10%
Cell count normalized to cells treated with DMSO control [8]: 1.021
Cell count per well [8]: 697
Population Fragmented Nuclei (%) [8]: 11.19%
Population Healthy Nuclei (%) [8]: 83.72%
Population Pyknosed Nuclei (%) [8]: 5.09%
Population apoptotic cell (%) [8]: 14.29%
Population cell that influence microtubule strucutre (%) [8]: 14.58%
Population with increased mitochondrial mass (%) [8]: 22.05%
Population with membrane disruption (%) [8]: 0.69%
Cell count normalized to cells treated with DMSO control [9]: 1.049
Cell count per well [9]: 313
Population Fragmented Nuclei (%) [9]: 6.13%
Population Healthy Nuclei (%) [9]: 53.26%
Population Pyknosed Nuclei (%) [9]: 40.61%
Population apoptotic cell (%) [9]: 42.45%
Population cell that influence microtubule strucutre (%) [9]: 17.27%
Population with increased mitochondrial mass (%) [9]: 58.99%
Population with membrane disruption (%) [9]: 0.00%
Cell count normalized to cells treated with DMSO control [10]: 1.189
Cell count per well [10]: 272
Population Fragmented Nuclei (%) [10]: 5.14%
Population Healthy Nuclei (%) [10]: 69.17%
Population Pyknosed Nuclei (%) [10]: 25.69%
Population apoptotic cell (%) [10]: 58.46%
Population cell that influence microtubule strucutre (%) [10]: 23.43%
Population with increased mitochondrial mass (%) [10]: 84.57%
Population with membrane disruption (%) [10]: 0.00%
Cell count normalized to cells treated with DMSO control [11]: 0.8125
Cell count per well [11]: 370
Population Fragmented Nuclei (%) [11]: 7.52%
Population Healthy Nuclei (%) [11]: 78.06%
Population Pyknosed Nuclei (%) [11]: 14.42%
Population apoptotic cell (%) [11]: 54.35%
Population cell that influence microtubule strucutre (%) [11]: 58.63%
Population with increased mitochondrial mass (%) [11]: 84.34%
Population with membrane disruption (%) [11]: 0.80%
Cell count normalized to cells treated with DMSO control [12]: 1.053
Cell count per well [12]: 369
Population Fragmented Nuclei (%) [12]: 5.29%
Population Healthy Nuclei (%) [12]: 71.47%
Population Pyknosed Nuclei (%) [12]: 23.24%
Population apoptotic cell (%) [12]: 41.77%
Population cell that influence microtubule strucutre (%) [12]: 57.61%
Population with increased mitochondrial mass (%) [12]: 88.89%
Population with membrane disruption (%) [12]: 1.23%
Cell count normalized to cells treated with DMSO control [13]: 0.6376
Cell count per well [13]: 387
Population Fragmented Nuclei (%) [13]: 7.23%
Population Healthy Nuclei (%) [13]: 75.14%
Population Pyknosed Nuclei (%) [13]: 17.63%
Population apoptotic cell (%) [13]: 40.98%
Population cell that influence microtubule strucutre (%) [13]: 62.69%
Population with increased mitochondrial mass (%) [13]: 85.38%
Population with membrane disruption (%) [13]: 0.38%
Cell count normalized to cells treated with DMSO control [14]: 0.8682
Cell count per well [14]: 392
Population Fragmented Nuclei (%) [14]: 3.68%
Population Healthy Nuclei (%) [14]: 77.34%
Population Pyknosed Nuclei (%) [14]: 18.98%
Population apoptotic cell (%) [14]: 47.76%
Population cell that influence microtubule strucutre (%) [14]: 63.74%
Population with increased mitochondrial mass (%) [14]: 83.88%
Population with membrane disruption (%) [14]: 0.73%
Cell count normalized to cells treated with DMSO control [15]: 0.5082
Cell count per well [15]: 514
Population Fragmented Nuclei (%) [15]: 8.84%
Population Healthy Nuclei (%) [15]: 75.22%
Population Pyknosed Nuclei (%) [15]: 15.95%
Population apoptotic cell (%) [15]: 52.70%
Population cell that influence microtubule strucutre (%) [15]: 69.63%
Population with increased mitochondrial mass (%) [15]: 76.50%
Population with membrane disruption (%) [15]: 0.29%
Cell count normalized to cells treated with DMSO control [16]: 0.7148
Cell count per well [16]: 488
Population Fragmented Nuclei (%) [16]: 9.82%
Population Healthy Nuclei (%) [16]: 75.45%
Population Pyknosed Nuclei (%) [16]: 14.73%
Population apoptotic cell (%) [16]: 34.85%
Population cell that influence microtubule strucutre (%) [16]: 65.68%
Population with increased mitochondrial mass (%) [16]: 74.26%
Population with membrane disruption (%) [16]: 1.78%
